Experiment [1] relates to PKB Ser473 phosphorylation in Rat1-myr-HA-p110 alpha cells. Put plainly: Reverse protein array, PKB Ser473 phosphorylation in Rat1-myr-HA-p110 alpha cells. Conditions: Rattus norvegicus, 0.5 h, 30 minutes compound incubation, read-out: p-PKB/IC50_alpha. It is filed as cell-based.
Experiment [2] relates to PKB Ser473 phosphorylation in Rat1-myr-HA-p110 beta cells. Put plainly: Reverse protein array, PKB Ser473 phosphorylation in Rat1-myr-HA-p110 beta cells. The conditions noted are these: Rattus norvegicus, 0.5 h, 30 minutes compound incubation, read-out: p-PKB/IC50_beta. It is filed as cell-based.

Turning to `Cc1nc(N2CCC2)ccc1-n1c(=O)n(C)c2cnc3ccc(-c4cncc(C(C)(C)O)c4)cc3c21` [Example 23.3, 1-(6-Azetidin-1-yl-2-methyl-pyridin-3-yl)-8-[5-(1-hydroxy-1-methyl-ethyl)-pyridin-3-yl]-3-methyl-1,3-dihydro-imidazo[4,5-c]quinolin-2-one], the IC50 came out at 5.7 nM in experiment [1] and 23.1 nM in experiment [2].

As to `CNc1ccc(-c2ccc3ncc4c(c3c2)n(-c2ccc(N3CCC3)nc2C)c(=O)n4C)cn1` [Example 23.4, 1-(6-Azetidin-1-yl-2-methyl-pyridin-3-yl)-3-methyl-8-(6-methylamino-pyridin-3-yl)-1,3-dihydro-imidazo[4,5-c]quinolin-2-one], the IC50 was 5.7 nM in experiment [1] and 6.8 nM in experiment [2].

Take `CCOc1cc(-c2ccc3ncc4c(c3c2)n(-c2ccc(N3CCC3)nc2C)c(=O)n4C)cnc1COC` [Example 23.5, 1-(6-Azetidin-1-yl-2-methyl-pyridin-3-yl)-8-(5-ethoxy-6-methoxymethyl-pyridin-3-yl)-3-methyl-1,3-dihydro-imidazo[4,5-c]quinolin-2-one]: the values for the IC50 in experiment [1] and in experiment [2] were 37.3 nM and 98.6 nM, respectively.

For the compound `COCc1ncc(-c2ccc3ncc4c(c3c2)n(-c2ccc(N3CCC3)nc2C)c(=O)n4C)cc1OC` [Example 23.6, 1-(6-Azetidin-1-yl-2-methyl-pyridin-3-yl)-8-(5-methoxy-6-methoxymethyl-pyridin-3-yl)-3-methyl-1,3-dihydro-imidazo[4,5-c]quinolin-2-one], the IC50 in experiment [1] stood at 37.1 nM; in experiment [2] it was 103 nM.

`CCNc1cc(-c2ccc3ncc4c(c3c2)n(-c2ccc(N3CCC3)nc2C)c(=O)n4C)cnc1CO` [Example 23.8, 1-(6-Azetidin-1-yl-2-methyl-pyridin-3-yl)-8-(5-ethylamino-6-hydroxymethyl-pyridin-3-yl)-3-methyl-1,3-dihydro-imidazo[4,5-c]quinolin-2-one]: the IC50 in experiment [1] was 7.3 nM; in experiment [2], < 4.57 nM.

Consider `Cc1nc(N2CCC2)ccc1-n1c(=O)n(C)c2cnc3ccc(-c4cncc(OC(C)C)c4)cc3c21` [Example 23.9, 1-(6-Azetidin-1-yl-2-methyl-pyridin-3-yl)-8-(5-isopropoxy-pyridin-3-yl)-3-methyl-1,3-dihydro-imidazo[4,5-c]quinolin-2-one], for which the IC50 in experiment [1] came out at 26.2 nM; in experiment [2], 136 nM.

Consider `CNc1ncc(-c2ccc3ncc4c(c3c2)n(-c2ccc(N3CC(F)(F)C3)nc2C)c(=O)n4C)cn1` [Example 24.1, 1-[6-(3,3-Difluoro-azetidin-1-yl)-2-methyl-pyridin-3-yl]-3-methyl-8-(2-methylamino-pyrimidin-5-yl)-1,3-dihydro-imidazo[4,5-c]quinolin-2-one], for which the IC50 came to 15.3 nM in experiment [1] and 12.7 nM in experiment [2].

Regarding `CCOc1cc(-c2ccc3ncc4c(c3c2)n(-c2ccc(N3CCCC3)nc2C)c(=O)n4C)cnc1COC` [Example 25.2, 8-(5-Ethoxy-6-methoxymethyl-pyridin-3-yl)-3-methyl-1-(2-methyl-6-pyrrolidin-1-yl-pyridin-3-yl)-1,3-dihydro-imidazo[4,5-c]quinolin-2-one], the IC50 in experiment [1] is 48 nM; in experiment [2], 39.9 nM.

For `Cc1nc(N2CCCC2)ccc1-n1c(=O)n(C)c2cnc3ccc(-c4cncc(C(C)(C)O)c4)cc3c21` [Example 25.3, 8-[5-(1-Hydroxy-1-methyl-ethyl)-pyridin-3-yl]-3-methyl-1-(2-methyl-6-pyrrolidin-1-yl-pyridin-3-yl)-1,3-dihydro-imidazo[4,5-c]quinolin-2-one], the IC50 in experiment [1] is 13.9 nM; in experiment [2], 30.6 nM.

`Cc1nc(N(C)CCO)ccc1-n1c(=O)n(C)c2cnc3ccc(-c4cnc(N)c(C(F)(F)F)c4)cc3c21` [Example 26.1, 8-(6-Amino-5-trifluoromethyl-pyridin-3-yl)-1-{6-[(2-hydroxy-ethyl)-methyl-amino]-2-methyl-pyridin-3-yl}-3-methyl-1,3-dihydro-imidazo[4,5-c]quinolin-2-one]: the IC50 in experiment [1] and in experiment [2] was < 4.57 nM throughout.

With `CNc1ncc(-c2ccc3ncc4c(c3c2)n(-c2ccc(N(C)CCO)nc2C)c(=O)n4C)cn1` [Example 26.2, 1-{6-[(2-Hydroxy-ethyl)-methyl-amino]-2-methyl-pyridin-3-yl}-3-methyl-8-(2-methylamino-pyrimidin-5-yl)-1,3-dihydro-imidazo[4,5-c]quinolin-2-one], the results for the IC50 in experiment [1] and in experiment [2] were 5.1 nM and < 4.57 nM, respectively.

Turning to `CNc1ncc(-c2ccc3ncc4c(c3c2)n(-c2ccc(N3CCC(O)C3)nc2C)c(=O)n4C)cn1` (stereo not drawn) [Example 27.2, 1-[6-(3-Hydroxy-pyrrolidin-1-yl)-2-methyl-pyridin-3-yl]-3-methyl-8-(2-methylamino-pyrimidin-5-yl)-1,3-dihydro-imidazo[4,5-c]quinolin-2-one], the IC50 in experiment [1] and in experiment [2] was 11.3 nM in each case.

`COC1CCN(c2ccc(-n3c(=O)n(C)c4cnc5ccc(-c6cncc(C(C)(C)O)c6)cc5c43)c(C)n2)C1` (stereo not drawn) [Example 28.1, 8-[5-(1-Hydroxy-1-methyl-ethyl)-pyridin-3-yl]-1-[6-(3-methoxy-pyrrolidin-1-yl)-2-methyl-pyridin-3-yl]-3-methyl-1,3-dihydro-imidazo[4,5-c]quinolin-2-one]: the IC50 came out at 22.7 nM in experiment [1] and 36.7 nM in experiment [2].

Regarding `CCNc1cc(-c2ccc3ncc4c(c3c2)n(-c2ccc(N3CC(O)C3)nc2C)c(=O)n4C)cnc1CO` [Example 29.2, 8-(5-Ethylamino-6-hydroxymethyl-pyridin-3-yl)-1-[6-(3-hydroxy-azetidin-1-yl)-2-methyl-pyridin-3-yl]-3-methyl-1,3-dihydro-imidazo[4,5-c]quinolin-2-one], the IC50 in experiment [1] was determined as 14 nM; in experiment [2] it was 32.7 nM.

Regarding `CNc1ncc(-c2ccc3ncc4c(c3c2)n(-c2ccc(N3CC(O)C3)nc2C)c(=O)n4C)cc1F` [Example 29.3, 8-(5-Fluoro-6-methylamino-pyridin-3-yl)-1-[6-(3-hydroxy-azetidin-1-yl)-2-methyl-pyridin-3-yl]-3-methyl-1,3-dihydro-imidazo[4,5-c]quinolin-2-one], the IC50 in experiment [1] was found to be 21.9 nM; in experiment [2] it was 31.9 nM.

Consider `CNc1ncc(-c2ccc3ncc4c(c3c2)n(-c2ccc(N3CC(O)C3)nc2C)c(=O)n4C)cc1C(F)(F)F` [Example 29.4, 1-[6-(3-Hydroxy-azetidin-1-yl)-2-methyl-pyridin-3-yl]-3-methyl-8-(6-methylamino-5-trifluoromethyl-pyridin-3-yl)-1,3-dihydro-imidazo[4,5-c]quinolin-2-one], for which the IC50 amounted to 8 nM in experiment [1] and 21.9 nM in experiment [2].

As to `COc1cc(-c2ccc3ncc4c(c3c2)n(-c2ccc(N3CC(O)C3)nc2C)c(=O)n4C)cnc1CO` [Example 29.5, 1-[6-(3-Hydroxy-azetidin-1-yl)-2-methyl-pyridin-3-yl]-8-(6-hydroxymethyl-5-methoxy-pyridin-3-yl)-3-methyl-1,3-dihydro-imidazo[4,5-c]quinolin-2-one], the values for the IC50 in experiment [1] and in experiment [2] were 197 nM and 374 nM, respectively.

As for `COc1ncc(-c2ccc3ncc4c(c3c2)n(-c2ccc(N3CC(O)C3)nc2C)c(=O)n4C)c(OC)n1` [Example 29.6, 8-(2,4-Dimethoxy-pyrimidin-5-yl)-1-[6-(3-hydroxy-azetidin-1-yl)-2-methyl-pyridin-3-yl]-3-methyl-1,3-dihydro-imidazo[4,5-c]quinolin-2-one], the IC50 in experiment [1] was 17 nM; in experiment [2], 208 nM.

Consider `CNc1ncc(-c2ccc3ncc4c(c3c2)n(-c2ccc(C(C)(C)O)nc2C)c(=O)n4C)cc1F` [Example 31.1, 8-(5-Fluoro-6-methylamino-pyridin-3-yl)-1-[6-(1-hydroxy-1-methyl-ethyl)-2-methyl-pyridin-3-yl]-3-methyl-1,3-dihydro-imidazo[4,5-c]quinolin-2-one], for which the figures for the IC50 in experiment [1] and in experiment [2] were 14.6 nM and 19.3 nM, respectively.

Turning to `CNc1ncc(-c2ccc3ncc4c(c3c2)n(-c2ccc(N3CC[C@H](O)C3)nc2C)c(=O)n4C)cn1` [Example 32.1, 1-[6-((S)-3-Hydroxy-pyrrolidin-1-yl)-2-methyl-pyridin-3-yl]-3-methyl-8-(2-methylamino-pyrimidin-5-yl)-1,3-dihydro-imidazo[4,5-c]quinolin-2-one], the IC50 in experiment [1] and in experiment [2] was < 4.57 nM each time.

Regarding `CNc1ncc(-c2ccc3ncc4c(c3c2)n(-c2ccc(N3CC[C@H](O)C3)nc2C)c(=O)n4C)cc1F` [Example 32.2, 8-(5-Fluoro-6-methylamino-pyridin-3-yl)-1-[6-((S)-3-hydroxy-pyrrolidin-1-yl)-2-methyl-pyridin-3-yl]-3-methyl-1,3-dihydro-imidazo[4,5-c]quinolin-2-one], the IC50 in experiment [1] was determined as 8.1 nM; in experiment [2], 15.2 nM.

As to `COc1ncc(-c2ccc3ncc4c(c3c2)n(-c2ccc(N3CC[C@H](O)C3)nc2C)c(=O)n4C)c(OC)n1` [Example 32.3, 8-(2,4-Dimethoxy-pyrimidin-5-yl)-1-[6-((S)-3-hydroxy-pyrrolidin-1-yl)-2-methyl-pyridin-3-yl]-3-methyl-1,3-dihydro-imidazo[4,5-c]quinolin-2-one], the IC50 in experiment [1] was 45 nM; in experiment [2], 80 nM.

On to `CNc1ncc(-c2ccc3ncc4c(c3c2)n(-c2ccc(N3CC[C@H](O)C3)nc2C)c(=O)n4C)cc1C(F)(F)F` [Example 32.5, 1-[6-((S)-3-Hydroxy-pyrrolidin-1-yl)-2-methyl-pyridin-3-yl]-3-methyl-8-(6-methylamino-5-trifluoromethyl-pyridin-3-yl)-1,3-dihydro-imidazo[4,5-c]quinolin-2-one], for which the IC50 in experiment [1] was 10 nM; in experiment [2], 11 nM.

With `Cc1nc(N2CC[C@H](O)C2)ccc1-n1c(=O)n(C)c2cnc3ccc(-c4cncc(OC(C)C)c4)cc3c21` [Example 32.8, 1-[6-((S)-3-Hydroxy-pyrrolidin-1-yl)-2-methyl-pyridin-3-yl]-8-(5-isopropoxy-pyridin-3-yl)-3-methyl-1,3-dihydro-imidazo[4,5-c]quinolin-2-one], the IC50 stood at 35.8 nM in experiment [1] and 63.7 nM in experiment [2].

These data come from US20100311714A1, “1H-IMIDAZO[4,5-c]QUINOLINONE COMPOUNDS” (priority 2009, published 2010).
